Measured values from patent publication US20250099420A1, “SMALL MOLECULE MODULATORS OF GPR139 COMPLEX” (University of Florida Research Foundation, Incorporated, priority 2022, published 2025).

What was measured:
parental HEK cells = test: HEK parental Antagonist Counterscreen Assay (non-transfected cells, acetylcholine control); type: cell-based; conditions: for EC50: Homo sapiens, HEK293, acetylcholine as control, scientific notation, molarity
GPR139 [1] = target: T1, GPR139 (Homo sapiens, UniProt Q6DWJ6); test: GPR139 Antagonist titration assay (calcium detection, HEK-GPR139 cells, vs EC80 of S-JNJ-63533054); conditions: for GPR139 Antagonist Activity Averaged Max % Response (±St. Dev.): activity relative to known control; for GPR139 Antagonist Activity Lipophilic Efficiency (logD): based on logD; for GPR139 Antagonist Activity Lipophilic Efficiency (logP): based on logP; for GPR139 Antagonist Activity Hill Slope: fitted dose-response curve
T1 sequence (Q6DWJ6 1-353): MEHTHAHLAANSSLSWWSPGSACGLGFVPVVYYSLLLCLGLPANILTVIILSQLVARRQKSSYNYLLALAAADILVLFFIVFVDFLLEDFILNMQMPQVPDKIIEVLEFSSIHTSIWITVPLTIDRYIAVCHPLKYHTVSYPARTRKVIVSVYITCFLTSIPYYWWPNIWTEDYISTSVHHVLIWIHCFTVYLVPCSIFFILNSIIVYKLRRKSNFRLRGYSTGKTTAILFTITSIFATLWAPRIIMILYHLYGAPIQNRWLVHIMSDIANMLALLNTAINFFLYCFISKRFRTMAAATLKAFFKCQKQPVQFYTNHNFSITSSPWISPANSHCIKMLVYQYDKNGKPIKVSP
Protocol: GPR activity was assessed using a calcium detection assay. GPR139 agonists stimulate an increase in intracellular calcium in HEK-GPR139 cells. Agonists increase the release of intracellular calcium, while antagonists decrease the release of intracellular calcium, as compared to an EC80 stimulation of the know agonist S-JNJ-63533054. The positive control for the agonist mode was cells treated with EC100 of known agonist S-JNJ-63533054. Negative control samples were treated with DMSO. The antagonist high control in cells was EC80 of S-JNJ-63533054+IC100 S-JNJ-3792165, while cells were treated with EC80 of S-JNJ-63533054+DMSO for the low control. Intracellular calcium was measured using Calcium 5.
HEK cells were transfected the DNA encoding GPR139 and incubated for 24 hours. 3000 cells/well in 3 μL HEPES and 1% DMSO were seeded into 1536-well plates. 3 μL Calcium 5 was then added to each well and cells were incubated for 60 min. at 37° C. in 5% CO2 and 95% relative humidity. Cells were pretreated with 50 nL DMSO (5 min. at room temperature in the dark) to stabilize response and desensitize cells to DMSO. A 5 second basal read was recorded and compounds in 30 nL were added to the cells, followed by a 150 second read.
B. Antagonist Mode: The “High Control” represented wells containing cells with GPR139+Antagonist IC100+Agonist EC80. “Low Control” represented wells containing cells with GPR139 with EC100 Agonist. “0% control” and sample field represented wells containing cells with GPR139 with EC80 Agonist with DMSO or compounds. The Z′ and S:B for this assay were calculated using the High Control and Low Control wells.
The HEK parental counterscreen utilized the same cells but not transfected with the plasmid. Acetylcholine was used in place of GPR139 agonist as the control compound. The cells were plated overnight, similar to the HEK antagonist counterscreen protocol.
The GPR139 Agonist and Antagonist titration assays employed the same reagents, protocols, and detection systems as the primary assays, but tested each as 10 point dose response starting at 676 nM concentration in triplicate with 1:3 dilutions. The HEK parental counterscreens utilized the same cells but not transfected with the plasmid. Acetylcholine was used in place of GPR139 agonist as the control compound. The cells were plated overnight, similar to the HEK antagonist counterscreen protocol.
For each test compound, percent activation was plotted against compound concentration. A four parameter equation describing a sigmoidal dose-response curve was then fitted with adjustable baseline using Assay Explorer software (Symyx Technologies Inc.).

GPR139 [2] = target: T1, GPR139; test: [3H]JNJ-63533054 radioligand competition binding assay on membranes of HEK293T/17 cells; design: HA signal peptide (HASP) (N); expressed in transfected cells; host or cells: HEK293T/17 cells (membrane preparation); conditions: for inhibition at 10 µM: 10 μM of the indicated compound, (10 μM) JNJ-63533054 as printed in title; for Ki: Ki=IC50/(1+C/Kd), membranes of HEK293T/17 cells expressing human GPR139, read-out: Ki ± SEM
Description: Eighteen compounds were selected for additional study. The compounds were re-synthesized and tested in radioligand binding competition assays for their ability to displace [^3H]-labeled reference agonist JNJ-63533054 on GPR139. The GPR139 construct used (pCDNA3.1-HASP-HA-GPR139) contained an N-terminal HA signal peptide (HASP), followed by an HA tag and human GPR139 (NM_001002911.4). HEK293T/17 cells were maintained in Dulbecco's modified Eagle's medium with 10% (v/v) fetal bovine serum, nonessential amino acids, and 1 mM sodium pyruvate.
Competition binding assay: Radioligand binding assay used human GPR139 expressed in HEK293T/17 cells. HEK293T/17 cells were transfected pCDNA3.1-HASP-HA-GPR139. 48 h after, cells were detached from plates by pipetting with PBS, centrifuged at 500×g for 5 min, and then the fluid was aspirated away. The cell pellets were frozen with liquid nitrogen and stored at −80° C. Pellets were homogenized in TE buffer (50 mM Tris-HCl, pH 7.4, 5 mM EDTA) and centrifuged at 1000×g at 4° C. for 5 min. Supernatant was collected and recentrifuged at 30,000×g at 4° C. for 30 min. The pellet was rehomogenized in TE buffer and incubated for 60 minutes at room temperature with eight concentrations of [^3H]JNJ-63533054 (specific activity 24.7 Ci/mmol) ranging from 0.024 nM to 400 nM. The binding reaction was terminated by filtration through GF/C filter (Waterman) followed by washes with cold TE buffer. Filters were dried in a hood overnight followed by the addition of scintillation fluid. Bound radioactivity was counted on a Hidex 600 liquid scintillation counter. […] Nonspecific binding was determined with 10 μM JNJ-63533054. The Kd values of the radioligands and IC50 of the antagonist were calculated by Graphpad Prism. Ki values were calculated as Ki=IC50/(1+C/Kd), where C is concentration of the radioligand.
Various concentrations of selected ligands were then added in the presence of 10 nM [^3H]-JNJ-63533054 and their ability to displace [^3H]labeling on cellular membranes was assessed. FIGS. 3B and 3C present representative data obtained in these experiments. […] The results of these experiments are presented in the Table 3 and confirm selective binding the compounds to GPR139 thereby validating their interaction with the intended target.

GPR139 [3] = target: T1, GPR139; test: GPR139 Agonist titration / agonist counterscreen assay (calcium detection, HEK-GPR139 cells); type: cell-based; design: expressed in transfected cells; host or cells: HEK Aequorin cells, Maxcyte transient transfection; conditions: agonist counterscreen of the antagonists; for EC50: scientific notation, molarity, read-out: GRP139 Agonist activity EC50
Protocol: GPR activity was assessed using a calcium detection assay. […] Negative control samples were treated with DMSO. […] Intracellular calcium was measured using Calcium 5.

| Compound | EC50 (GPR139 [1]) [µM] | GPR139 Antagonist Activity Ligand Efficiency (GPR139 [1]) | GPR139 Antagonist Activity Averaged Max % Response (±St. Dev.) (GPR139 [1]) [%] | GPR139 Antagonist Activity Lipophilic Efficiency (logD) (GPR139 [1]) | GPR139 Antagonist Activity Lipophilic Efficiency (logP) (GPR139 [1]) | GPR139 Antagonist Activity Hill Slope (GPR139 [1]) | inhibition at 10 µM (GPR139 [2]) [%] | Ki (GPR139 [2]) [µM] | GRP139 Agonist activity Averaged Max % Response (±St. Dev.) (GPR139 [3]) | EC50 (GPR139 [3]) [µM] | HEK antagonist activity Averaged Max % Response (±St. Dev.) (parental HEK cells) [%] | EC50 (parental HEK cells) [µM] |
| --- | --- | --- | --- | --- | --- | --- | --- | --- | --- | --- | --- | --- |
| CCN1C(=O)c2cccc3c(S(=O)(=O)Nc4cccc(F)c4)ccc1c23 [SR-01000110577] | 6.9 | 0.28 | 81.68 ± 2.49 | 2.48 | 2.23 | 0.62 | -117 ± 2.89 | 8.03 ± 0.18 | 5.61 ± 4.33% | > 14.1 | 24.57 ± 3.75 | > 14.1 |
| COc1ccc(-c2noc(CN3CCCN(c4ccc(F)cc4)CC3)n2)c(OC)c1OC [SR-01000169333] | 8.4 | 0.22 | 66.19 ± 8.60 | 1.64 | 1.37 | 1.11 | 64.5 ± 1.23 | 4.09 ± 0.09 | 2.42 ± 7.61% | > 14.1 | 9.54 ± 10.14 | > 14.1 |
| O=C(CCCC(=O)OCC(Cl)=C(Cl)Cl)Nc1ccccc1F [SR-01000195221] | 6.3 | 0.33 | 86.87 ± 1.46 | 1.71 | 1.71 | 0.88 | 77.7 ± 1.19 | 9.98 ± 0.23 | 3.53 ± 6.53% | > 14.1 | 28.17 ± 14.51 | > 14.1 |
| CCOC(=O)c1ccc2nc(C)c3c(c2c1)OC(C(C)(Cl)Br)C3 (centres unmarked) [SR-01000220077] | 4.7 | 0.32 | 82.15 ± 3.63 | 1.23 | 1.20 | 0.74 | 77.8 ± 5 | 7.31 ± 0.16 | 29.53 ± 3.67% | > 14.1 | 5.29 ± 23.62 | > 14.1 |
| CCCOC(=O)c1ccc(NC(=O)CSc2ccccc2)cc1 [SR-01000244770] | 6.9 | 0.31 | 82.77 ± 1.38 | 1.07 | 1.07 | 1.77 | 56.3 ± 7.8 | 146 ± 0.003 | 7.91 ± 4.93% | > 14.1 | 15.65 ± 7.33 | > 14.1 |
| Cc1cc(I)ccc1NC(=O)CSc1cccs1 [SR-01000253143] | 4.3 | 0.42 | 63.84 ± 2.29 | 0.78 | 0.78 | 0.87 | 54.3 ± 5.98 | 0.13 ± 0.01 | 4.38 ± 3.28% | > 14.1 | 22.82 ± 1.84 | > 14.1 |
| Cc1cccc(NC(=O)CCC(=O)OCc2ccc(Br)cc2)c1 [SR-01000258561] | 2.3 | 0.34 | 102.3 ± 0.93 | 1.45 | 1.45 | 1.14 | 35.6 ± 21.2 | 7.14 ± 0.16 | 45.23 ± 2.15% | > 14.1 | 50.40 ± 13.43 | 13.8 |

The next lines start with results.

| EC50 (GPR139 [1]) [µM] | GPR139 Antagonist Activity Ligand Efficiency (GPR139 [1]) | GPR139 Antagonist Activity Averaged Max % Response (±St. Dev.) (GPR139 [1]) [%] | GPR139 Antagonist Activity Lipophilic Efficiency (logD) (GPR139 [1]) | GPR139 Antagonist Activity Lipophilic Efficiency (logP) (GPR139 [1]) | GPR139 Antagonist Activity Hill Slope (GPR139 [1]) | inhibition at 10 µM (GPR139 [2]) [%] | Ki (GPR139 [2]) [µM] | GRP139 Agonist activity Averaged Max % Response (±St. Dev.) (GPR139 [3]) | EC50 (GPR139 [3]) [µM] | Compound | HEK antagonist activity Averaged Max % Response (±St. Dev.) (parental HEK cells) [%] | EC50 (parental HEK cells) [µM] |
| --- | --- | --- | --- | --- | --- | --- | --- | --- | --- | --- | --- | --- |
| 2.1 | 0.31 | 84.30 ± 2.68 | 1.99 | 1.99 | 0.99 | 59.3 ± 7.51 | 4.91 ± 1.1 | 4.67 ± 4.93% | > 14.1 | O=C(CS(=O)(=O)c1ccccc1)Nc1ccc(Oc2ccccc2)cc1 [SR-01000263867] | 20.24 ± 7.73 | > 14.1 |
|  |  |  |  |  |  | 107 ± 1.95 | 1.68 ± 0.04 |  |  | O=C(NCCC1=CCCCC1)N1c2ccccc2Sc2ccccc21 [SR-01000452455-1 analog] |  |  |
|  | 0.22 | 56.13 ± 9.03 | 2.24 | 2.24 | 1.46 |  |  | −987E−3 ± 9.16 ^ % |  | CCOC(=O)N1CCC(NC(=O)c2cnn3c(O)c(Cc4cccc(C)c4)c(C)nc23)CC1 [SR-01000581959] | 14.54 ± 9.66 | > 13.4 |
| > 1.6 | 0.33 | 87.64 ± 8.11 | 0.62 | 0.62 |  |  |  | 13.37 ± 4.41% | > 14.1 | Cc1cccc(-n2ccnc2SCC(=O)Nc2cccc(C)c2C)c1 [SR-01000907209] | 18.39 ± 12.65 | > 14.1 |
|  |  |  |  |  |  | 65.5 ± 0.72 | 6.07 ± 0.14 |  |  | O=C(Nc1cccc(-c2nnco2)c1)C1c2ccccc2Oc2ccccc21 [SR-01000907648-1 analog] |  |  |
| 1.5 | 0.25 | 88.60 ± 6.25 | 1.51 | 1.51 | 0.23 |  |  | 35.82 ± 4.87% | > 14.1 | Cc1c(-c2cccc(NC(=O)C3c4ccccc4Oc4ccccc43)c2)nc2ncccn12 [SR-01000907648] | 55.77 ± 9.26 | 7.6 |
|  |  |  |  |  |  | 88.7 ± 21.1 | 9.45 ± 0.21 |  |  | CC(=O)Nc1ccc(Sc2ccc(S(=O)(=O)Nc3ccc(C)cc3C)cc2[N+](=O)[O-])cc1 [SR-07000003837-2 analog 1] |  |  |
|  |  |  |  |  |  | 51.9 ± 5.47 | 1.29 ± 0.03 |  |  | CN1CCN(S(=O)(=O)c2ccc(Sc3ccc(Cl)cc3)c([N+](=O)[O-])c2)CC1 [SR-07000003837-2 analog 2] |  |  |
